Patent US20260315487A1, “IKK-ALPHA INHIBITORS” (Cancer Research Technology Limited, priority 2023, published 2026)
pKi: −log10 of the molar value. Like-named read-outs stand apart in the source and are kept apart here.

Tests used:
CDK9 = CDK9 (Homo sapiens, UniProt P50750); experiment: kinome profiling at 1 μM, CDK9; assay type: biochemical; details: read-out: % inhibition of CDK9
Excerpt: (§1) We profiled three compounds from the series across the kinome (FIG. 11). […] To identify the structural drivers for CDK inhibition, we obtained X-ray crystal structures of 5 y and 6 g SU1336 and SU1349 with CDK-2 (FIG. 12A) to potentially identify possible routes towards introducing selectivity for IKKα over the CDK enzymes as well as IKKβ. […] All three derivatives form complexes with CDK2 with the pyrrolo[2,3 -b]pyridine H-bonding to GK+3 (Leu 83 ) and the aminoindazole projected towards the G-loop (FIG. 12A), forming H-bonds with Glu 51 and Lys 33 at the back of the pocket. The adoption of the 4 SU1253 -type orientation, rather than the flipped pose observed in IKKα, is probably facilitated by Tr-stacking between the aminoindazole and the GK residue, which in the CDKs is Phe, rather than Met. […] For 6 g SU1349, the hydrophobic pendant benzyloxy group points out into solvent, but can form face-to-edge Tr-Tr interactions with Phe 82 and His 84 from the hinge. Exchanging the hydrophobic pendant benzyloxy group for the morpholinoethyl-containing substituent in 5 y SU1336 removes any direct interaction with these hinge residues, preferring to sit in a more solvent-exposed position, as befits a basic side chain that will be protonated at physiological pH (FIG. 12B).
(§2) Black, 4 SU1253; grey, 5 r SU1261; diagonal stripes, 6 g SU1349. […] All tested compounds (4 SU1253, 5 r SU1261 and 6 g SU1349 ) inhibited CDK5 and CDK9 with >80 %.

[1] = mouse hepatocyte clearance (cryopreserved pooled mouse CD1 hepatocytes); assay type: in vitro ADME; details: mouse, hepatocytes; 1 μM; 0.5×10^6 cells/mL; 37° C.
Procedure: Pharmacokinetic studies were contracted to Sygnature Discovery Limited. Intrinsic clearance and half life were determined using cryopreserved pooled mouse CD1 hepatocytes. Test compounds were analysed at 1 μM in Williams Media E buffer (0.01 % DMSO) at a cell density of 0.5×10^6 cells mL^−1 . Cells were incubated at 37° C. for one hour with shaking and compound depletion was measured by LC-MS/MS at six timepoints (0.25, 5, 10, 20, 40, and 60 minutes).

PRAK = target: T1, PRAK (Homo sapiens, UniProt Q8IW41); experiment: kinome profiling at 1 μM, PRAK; assay type: biochemical
T1 sequence (Q8IW41 1-473): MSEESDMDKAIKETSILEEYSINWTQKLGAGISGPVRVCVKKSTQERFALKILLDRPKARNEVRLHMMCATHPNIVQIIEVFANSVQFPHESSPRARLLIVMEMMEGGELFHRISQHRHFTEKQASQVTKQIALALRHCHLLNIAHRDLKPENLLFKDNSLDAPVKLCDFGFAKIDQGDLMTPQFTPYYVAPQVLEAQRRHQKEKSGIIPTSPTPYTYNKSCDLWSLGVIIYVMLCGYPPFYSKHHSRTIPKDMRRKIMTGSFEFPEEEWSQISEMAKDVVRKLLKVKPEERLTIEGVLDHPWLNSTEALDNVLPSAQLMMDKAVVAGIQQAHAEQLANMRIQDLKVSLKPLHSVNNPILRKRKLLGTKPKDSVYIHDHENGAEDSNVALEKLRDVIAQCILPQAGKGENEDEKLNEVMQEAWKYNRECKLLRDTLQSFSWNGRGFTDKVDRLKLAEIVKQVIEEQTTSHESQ
Excerpt: as §1

panel of kinases = experiment: kinome profiling at 1 μM; assay type: biochemical
Excerpt: as §1, §2

CDK5 = CDK5 (Homo sapiens, UniProt Q00535); experiment: kinome profiling at 1 μM, CDK5; assay type: biochemical; details: read-out: % inhibition of CDK5
Chain of CDK5 (Q00535 whole entry, species assumed): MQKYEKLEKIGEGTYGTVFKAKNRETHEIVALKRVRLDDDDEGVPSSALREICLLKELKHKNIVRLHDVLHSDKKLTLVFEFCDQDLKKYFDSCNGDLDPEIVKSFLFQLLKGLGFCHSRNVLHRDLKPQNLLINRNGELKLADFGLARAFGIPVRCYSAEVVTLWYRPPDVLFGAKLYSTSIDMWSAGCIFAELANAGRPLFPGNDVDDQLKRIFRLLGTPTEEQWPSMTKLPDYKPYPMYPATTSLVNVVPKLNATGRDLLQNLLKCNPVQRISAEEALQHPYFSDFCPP
Chain of CDK5 (Q15078 99-307 partner limits assumed, species assumed): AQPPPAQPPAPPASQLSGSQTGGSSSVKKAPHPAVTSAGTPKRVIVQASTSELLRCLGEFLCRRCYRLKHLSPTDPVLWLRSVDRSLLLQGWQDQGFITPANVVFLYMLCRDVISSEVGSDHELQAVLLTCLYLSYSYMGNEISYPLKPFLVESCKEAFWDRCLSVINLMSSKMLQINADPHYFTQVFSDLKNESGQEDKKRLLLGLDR
Excerpt: as §1, §2

IKKβ = target: T2, IKKβ (Homo sapiens, UniProt O14920); experiment: in-house DELFIA kinase assay, IKKβ; assay type: biochemical
T2 sequence (O14920 1-756): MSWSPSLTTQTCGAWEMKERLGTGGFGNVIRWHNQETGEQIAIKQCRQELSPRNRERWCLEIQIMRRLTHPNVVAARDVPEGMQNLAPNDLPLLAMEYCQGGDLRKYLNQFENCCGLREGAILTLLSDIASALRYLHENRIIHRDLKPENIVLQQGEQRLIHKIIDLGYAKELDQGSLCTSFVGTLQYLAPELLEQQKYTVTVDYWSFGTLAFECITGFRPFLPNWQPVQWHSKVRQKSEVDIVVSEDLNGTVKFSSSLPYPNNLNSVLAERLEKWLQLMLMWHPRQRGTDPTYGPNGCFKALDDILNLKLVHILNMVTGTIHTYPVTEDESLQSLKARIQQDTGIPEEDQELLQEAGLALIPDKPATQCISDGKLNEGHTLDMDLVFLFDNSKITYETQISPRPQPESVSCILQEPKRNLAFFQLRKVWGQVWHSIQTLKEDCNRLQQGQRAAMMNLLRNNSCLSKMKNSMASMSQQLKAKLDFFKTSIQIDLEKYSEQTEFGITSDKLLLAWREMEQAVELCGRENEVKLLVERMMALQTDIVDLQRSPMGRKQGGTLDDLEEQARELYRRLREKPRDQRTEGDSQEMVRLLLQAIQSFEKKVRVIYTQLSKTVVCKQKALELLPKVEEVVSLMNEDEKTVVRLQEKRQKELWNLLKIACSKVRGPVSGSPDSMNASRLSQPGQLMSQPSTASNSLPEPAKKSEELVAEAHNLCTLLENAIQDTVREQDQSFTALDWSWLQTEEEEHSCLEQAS

Chain of CDK9 (P50750 whole entry, species assumed): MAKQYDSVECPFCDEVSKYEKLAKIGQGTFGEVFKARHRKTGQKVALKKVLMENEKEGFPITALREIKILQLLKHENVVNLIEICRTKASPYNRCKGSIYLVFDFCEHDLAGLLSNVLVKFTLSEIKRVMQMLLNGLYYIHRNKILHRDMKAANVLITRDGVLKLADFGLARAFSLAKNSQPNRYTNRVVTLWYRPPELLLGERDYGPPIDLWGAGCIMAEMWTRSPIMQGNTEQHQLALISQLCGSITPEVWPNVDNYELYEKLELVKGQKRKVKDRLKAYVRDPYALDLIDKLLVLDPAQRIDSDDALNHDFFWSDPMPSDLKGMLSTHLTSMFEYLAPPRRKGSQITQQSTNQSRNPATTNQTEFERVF
Chain of CDK9 (O60563 whole entry partner, species assumed): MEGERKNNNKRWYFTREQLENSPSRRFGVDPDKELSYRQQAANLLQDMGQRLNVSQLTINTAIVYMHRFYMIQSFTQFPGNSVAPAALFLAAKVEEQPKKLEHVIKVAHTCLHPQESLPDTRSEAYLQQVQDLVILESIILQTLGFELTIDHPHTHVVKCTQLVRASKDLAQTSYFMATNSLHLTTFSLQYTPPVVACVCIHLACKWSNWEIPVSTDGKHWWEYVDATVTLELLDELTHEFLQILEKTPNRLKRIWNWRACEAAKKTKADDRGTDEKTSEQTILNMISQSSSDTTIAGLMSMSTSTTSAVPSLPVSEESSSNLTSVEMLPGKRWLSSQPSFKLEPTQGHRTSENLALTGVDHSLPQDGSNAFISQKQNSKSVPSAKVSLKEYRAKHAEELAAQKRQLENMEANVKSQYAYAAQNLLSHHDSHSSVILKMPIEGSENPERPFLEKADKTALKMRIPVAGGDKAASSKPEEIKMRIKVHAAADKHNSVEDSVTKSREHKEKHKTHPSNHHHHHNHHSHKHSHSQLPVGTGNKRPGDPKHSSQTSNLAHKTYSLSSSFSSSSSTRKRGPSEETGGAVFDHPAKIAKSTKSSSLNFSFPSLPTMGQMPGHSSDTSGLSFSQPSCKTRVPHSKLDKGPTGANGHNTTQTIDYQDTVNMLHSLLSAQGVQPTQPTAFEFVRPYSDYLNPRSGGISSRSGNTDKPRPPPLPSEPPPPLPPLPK

inhibition at 1 µM (CDK9; 1 μM) [%]	hepatocyte CLint [1] [µL/min/1e6 cells]	inhibition at 1 µM (PRAK) [%]	inhibition at 1 µM (CDK5; 1 μM) [%]	IKKβ inhibition, in words (IKKβ)	pKi (IKKβ)	inhibition at 1 µM (CDK9) [%]	inhibition at 1 µM (CDK5) [%]	SMILES	number of kinases inhibited by >80 % (panel of kinases; panel of 231 kinases) [kinases]	number of kinases inhibited by >80 % (panel of kinases; panel of 253 kinases (FIG. 11)) [kinases]	off-target inhibition of PRAK, in words (PRAK; compared with 5r SU1261)
> 80	38	> 80	> 80	lowest activity against IKKβ	6.17	–	–	Nc1n[nH]c2ccc(-c3ccnc4[nH]c(-c5cccc(OCc6ccccc6)c5)cc34)cc12 [5r SU1261, 5-(2-(3-(benzyloxy)phenyl)-1 H-pyrrolo[2,3-b]pyridin-4-yl)-1 H-indazol-3-amine]	10	10	–
–	27	–	–	–	5.47	> 80	> 80	Nc1n[nH]c2ccc(-c3ccnc4[nH]c(-c5ccnc(OCc6ccccc6)c5)cc34)cc12 [6g SU1349, 5-(2-(2-(Benzyloxy)pyridin-4-yl)-1 H-pyrrolo[2,3-b]pyridin-4-yl)-1 H-indazol-3-amine]	–	4	significantly reduced off-target inhibition
